These results are taken from patent US20200405699A1, “TREATING SICKLE CELL DISEASE WITH A PYRUVATE KINASE R ACTIVATING COMPOUND” (FORMA Therapeutics, Inc., priority 2018, published 2020).

Each structure is given as a SMILES string.

For series [1], the target named is PKR(G332S) (Homo sapiens, UniProt P30613, G332S). Put plainly: Luminescence Assay (Kinase Glo Plus), PKR G332S. It counts as biochemical. The settings on record: read-out: AC50 (PKRG332S). As for the experimental part: (§1) For each tested compound, the ability to activate PKR was determined using the following Luminescence Assay. The effect of phosphorylation of adenosine-5′-diphosphate (ADP) by PKR is determined by the Kinase Glo Plus Assay (Promega) in the presence or absence of FBP (D-fructose-1,6-diphosphate; BOC Sciences, CAS: 81028-91-3) as follows. Unless otherwise indicated, all reagents are purchased from Sigma-Aldrich. All reagents are prepared in buffer containing 50 mM Tris-HCl, 100 mM KCl, 5 mM MgCl2, and 0.01% Triton X100, 0.03% BSA, and 1 mM DTT. Enzyme and PEP (phosphoenolpyruvate) are added at 2× to all wells of an assay-ready plate containing serial dilutions of test compounds or DMSO vehicle. Final enzyme concentrations for PKR(wt), PKR(R510Q), and PKR(G332S) are 0.8 nM, 0.8 nM, and 10 nM respectively. Final PEP concentration is 100 μM. The Enzyme/PEP mixture is incubated with compounds for 30 minutes at RT before the assay is initiated with the addition of 2×ADP and KinaseGloPlus. Final concentration of ADP is 100 μM. […] For assays containing FBP, that reagent is added at 30 μM upon reaction initiation. Reactions are allowed to progress for 45 minutes at RT until luminescence is recorded by the BMG PHERAstar FS Multilabel Reader. The compound is tested in triplicate at concentrations ranging from 42.5 μM to 2.2 nM in 0.83% DMSO. AC50 measurements were obtained by the standard four parameter fit algorithm of ActivityBase XE Runner (max, min, slope and AC50). The AC50 value for a compound is the concentration (μM) at which the activity along the four parameter logistic curve fit is halfway between minimum and maximum activity.
(§2) As set forth in Tables 2 and 3 below and in FIG. 1, AC50 values are defined as follows: ≤0.1 μM (+++); >0.1 μM and ≤1.0 μM (++); >1.0 μM and ≤40 μM (+); >40 μM (0).
(In general: Kinase-Glo reads ATP consumption through a luciferase reaction.)

Series [2] deals with PKR-R510Q (Homo sapiens, UniProt P30613, R510Q). Put plainly: Luminescence Assay (Kinase Glo Plus), PKR R510Q. It counts as biochemical. The settings on record: read-out: AC50 (PKRR510Q). On the procedure:
as §1, §2

In series [3] the test system is 2,3-DPG levels in whole blood. The series can be described thus: PK/PD study in wild type mice, 2,3-DPG levels in blood. The settings on record: oral QD x7, doses ≥120 mg/kg (120 and 240 mg/kg), blood 24 h after dosing. The series is classed as in vivo, Balb/c mice. On the procedure:
(§3) Two pharmacokinetic (PK)/phamacodynamic (PD) studies were conducted in Balb/c mice that were administered Compound 1 once daily by oral gavage (formulated in 10% Cremophor EL/10% PG/80% DI water) for 7 days (QD×7) at doses of 0 (vehicle), 3.75, 7.5, 15, 30, 60 mg/kg (Study 1); 0 (vehicle), 7.5, 15, 30, 60, 120, or 240 mg/kg (Study 2). On the 7th day, whole blood was collected 24 hours after dosing and snap frozen. Samples were later thawed and analyzed by LC/MS for 2,3-DPG and ATP levels.

Series [4] in a line: PK/PD study in wild type mice, tolerability. The series is classed as in vivo. The settings on record: oral QD x7, both studies. As for the experimental part: as §3
For series [5], the system named is 2,3-DPG blood levels. Put plainly: SAD/MAD study in healthy volunteers, blood 2,3-DPG levels (LC-MS/MS). The series is classed as in vivo, human. An excerpt:
(§4) This is a first-in-human (FIH), Phase 1 study of Compound 1 that will characterize the safety, PK, and PD of Compound 1 after a single dose and after repeated dosing first in healthy adult volunteers and then in adolescents or adults with sickle cell disease. Initially, a dose range of Compound 1 in single ascending dose (SAD) escalation cohorts will be explored in healthy subjects. Enrollment of healthy subjects into 2-week multiple ascending dose (MAD) escalation cohorts will be initiated once the safety and PK from at least two SAD cohorts is available to inform the doses for the 2-week MAD portion of the study. The MAD cohorts will then run in parallel to the single dose cohorts. A single dose cohort is planned to understand food effects (FE) on the PK of Compound 1. […] Multiple dose studies in SCD subjects will then be initiated upon completion of MAD studies in healthy volunteers. Compound 1 will be administered in 25 mg and 100 mg tablets delivered orally.
(§5) Four healthy SAD cohorts were evaluated at doses of 200, 400, 700, and 1000 mg, and four healthy MAD cohorts received 200 to 600 mg total daily doses for 14 days at QD or BID dosing (100 mg BID, 200 mg BID, 300 mg BID, and 400 mg QD). In the food effect (FE) cohort, 10 healthy subjects received 200 mg of Compound 1 QD with and without food.
In the SAD cohorts, the subjects' blood 2,3-DPG levels were measured periodically after dosing by a qualified LC-MS/MS method for the quantitation of 2,3-DPG in blood. Decreased 2,3-DPG blood levels were observed 6 hours following a single dose of Compound 1 at all dose levels (earlier timepoints were not collected). Maximum decreases in 2,3-DPG levels generally occurred ˜24 hours after the first dose with the reduction sustained ˜48-72 hr postdose. Table 12 reports the median percentage change in 2,3-DPG blood levels, relative to baseline, measured over time in healthy volunteers after a single dose of Compound 1 (200 mg, 400 mg, 700 mg, or 1000 mg) or placebo. Accordingly, the median reduction in the concentration of 2,3-DPG, relative to baseline, was at least about 30% at all dose levels tested 24 hours after administration of the single dose.
In the MAD cohorts, the subjects' blood 2,3-DPG levels were measured periodically after dosing by a qualified LC-MS/MS method for the quantitation of 2,3-DPG in blood. The maximum decrease in 2,3-DPG on Day 14 was 55% from baseline (median). […] Table 13 reports the median percentage change in 2,3-DPG blood levels, relative to baseline, measured over time after the first dose on days 1 and 14 in healthy volunteers who received daily doses of Compound 1 (100 mg BID, 200 mg BID, or 300 mg BID) or placebo for 14 days. Accordingly, the median reduction in the concentration of 2,3-DPG, relative to baseline, was at least about 25% at all dose levels tested 24 hours after administration of the first dose on day 1 and at least about 40% at all dose levels tested 24 hours after administration of the first dose on day 14.
The following procedures are employed for the analysis of ATP and 2,3-DPG in human whole blood K2EDTA using a protein precipitation extraction procedure and analysis by LC-MS/MS.

Series [6] can be described thus: SAD/MAD/food effect study in healthy volunteers, pharmacokinetics. It counts as in vivo, human.
Description: as §4, §5

Sequence of PKR(G332S) (P30613 whole entry G332S): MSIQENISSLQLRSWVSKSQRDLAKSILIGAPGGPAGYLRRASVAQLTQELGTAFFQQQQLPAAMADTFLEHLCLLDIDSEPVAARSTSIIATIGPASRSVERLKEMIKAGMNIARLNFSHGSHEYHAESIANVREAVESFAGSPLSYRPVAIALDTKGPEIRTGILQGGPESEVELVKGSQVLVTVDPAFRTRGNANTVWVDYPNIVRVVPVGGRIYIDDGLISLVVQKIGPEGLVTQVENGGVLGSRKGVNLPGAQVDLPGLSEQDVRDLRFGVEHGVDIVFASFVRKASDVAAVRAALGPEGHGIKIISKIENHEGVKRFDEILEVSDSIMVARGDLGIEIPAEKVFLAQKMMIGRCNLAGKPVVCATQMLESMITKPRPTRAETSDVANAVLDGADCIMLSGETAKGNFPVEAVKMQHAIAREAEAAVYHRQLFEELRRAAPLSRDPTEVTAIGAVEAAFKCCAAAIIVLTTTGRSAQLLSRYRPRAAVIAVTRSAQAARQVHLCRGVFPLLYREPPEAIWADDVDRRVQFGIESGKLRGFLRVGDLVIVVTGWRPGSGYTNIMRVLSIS
Sequence of PKR-R510Q (P30613 whole entry R510Q): as the sequence (P30613 whole entry G332S) above, with S332G, R510Q counted along it

By AC50 is commonly meant the concentration giving half of the maximal activity seen. In the case of `O=C([C@H](CO)c1ccccc1)N1CC2=C(C1)CN(S(=O)(=O)c1cnc3c(c1)OCCO3)C2` (single isomer, unassigned) [Compound 1], the results for the AC50 in series [1] and in series [2] were 100 to 1000 nM and at most 100 nM, respectively. The “Reduction of 2,3-DPG levels” value in series [3] is over 30%. For the same molecule, the Adverse clinical signs entry in series [4] is given as “No adverse clinical signs were observed”. Besides, in series [4], the “Body weight change compared with vehicle group” value is given as “no differences in body weight change”. Also, the “2,3-DPG levels after final dose” value in series [5] (MAD cohorts, 72 hours after the final dose on Day 14) was “had not returned to baseline levels”. Also, the “Mean maximum reduction in concentration of 2,3-DPG” value in series [5] (MAD study) was “at least 50%”; in series [5] (SAD study), “at least 40%”. Moreover, the “Median reduction in concentration of 2,3-DPG relative to baseline” value is “at least 25%” in series [5] (MAD, all dose levels, 24 hours after first dose on day 1); “at least 40%” in series [5] (MAD, all dose levels, 24 hours after first dose on day 14); “at least 30%” in series [5] (all single dose levels tested, 24 hours after administration). For the same molecule, in series [5] (SAD cohorts), the “Time of maximum decrease in 2,3-DPG levels after first dose” value was about 24 h. In addition, the “Time postdose to which 2,3-DPG reduction was sustained” value in series [5] (SAD cohorts) lay within 48 to 72 h. In series [5] (healthy volunteers, calculated), the “PD half-life (2,3-DPG response)” value is on record as about 20 h. For the same molecule, the “PK linearity, multiple doses” value in series [6] (100-300 mg BID, 400 mg QD) is on record as “linear PK”. In addition, in series [6] (human, plasma, healthy volunteers, oral, postdose, read-out: Median Tmax), the Tmax was 1 h. In addition, the “Dose dependence of single dose exposure” value in series [6] (single doses ≥700 mg) is reported as “greater than dose-proportional”.
